Experimental data from ChEMBL document CHEMBL3425435, “4,6-Diarylaminothiazines as BACE1 Inhibitors and Their Use for the Reduction of Beta-Amyloid Production” (ACS Med Chem Lett, 2015).

Biological target: Beta-secretase 1 (Homo sapiens, UniProt P56817)
Test: Inhibition of BACE1 in human H4 cells stably transfected with APP751 containing Swedish mutation assessed as reduction in Abeta (1 to 40) and Abeta (1 to 42) production incubated for 19 hrs
Type: cell-based

Chain of Beta-secretase 1 (P56817 whole entry): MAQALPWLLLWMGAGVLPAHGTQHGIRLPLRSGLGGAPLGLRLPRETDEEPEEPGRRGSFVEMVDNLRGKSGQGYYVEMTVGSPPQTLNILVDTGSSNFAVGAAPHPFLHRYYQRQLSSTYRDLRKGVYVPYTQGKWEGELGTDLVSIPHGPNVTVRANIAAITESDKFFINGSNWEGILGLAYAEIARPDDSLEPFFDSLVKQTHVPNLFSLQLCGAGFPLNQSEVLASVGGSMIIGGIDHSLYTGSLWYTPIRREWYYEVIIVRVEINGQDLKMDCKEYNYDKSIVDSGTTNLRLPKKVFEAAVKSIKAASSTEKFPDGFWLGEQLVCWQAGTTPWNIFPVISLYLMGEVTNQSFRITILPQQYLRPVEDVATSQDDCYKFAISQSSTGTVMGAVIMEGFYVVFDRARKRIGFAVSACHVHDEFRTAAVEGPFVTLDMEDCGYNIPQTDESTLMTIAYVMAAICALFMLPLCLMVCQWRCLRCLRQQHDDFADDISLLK

| Structure (SMILES) | IC50 [nM] |
| --- | --- |
| Cc1noc(C)c1[C@@H]1C[C@@H](c2cc(NC(=O)c3ccc(Br)cn3)ccc2F)N=C(N)S1 | 22 |
| CC#Cc1cncc(-c2cc(Cl)c([C@]3(C)C[C@@H](c4c(C)noc4C)SC(N)=N3)s2)c1 | 30 |
| Cc1noc(C)c1[C@@H]1C[C@@H](c2cccc(-c3cncnc3)c2)N=C(N)S1 | 230 |
| CC#Cc1cncc(-c2csc([C@@H]3C[C@@H](c4c(C)noc4C)SC(N)=N3)c2)c1 | 60 |
| Cc1noc(C)c1[C@@H]1C[C@@](C)(c2cc(-c3cccnc3C#N)c(F)cc2F)N=C(N)S1 | 87 |
| Cc1noc(CC(C)(C)O)c1[C@@H]1C[C@@](C)(c2ccc(F)cc2F)N=C(N)S1 | 110 |
| Cc1noc(C)c1[C@@H]1C[C@@](C)(c2cc(-c3cncnc3)c(F)cc2F)N=C(N)S1 | 8 |
| Cc1noc(C)c1[C@@H]1C[C@@H](c2cc(-c3cncnc3)c(F)cc2F)N=C(N)S1 | 200 |
| Cc1noc(C)c1[C@@H]1C[C@@H](c2cc(-c3cccc(C#N)c3)cs2)N=C(N)S1 | 300 |
